Source: patent US9351941B2, “Radiofrequency-induced synchronization of in situ hyperthermia and chemotherapy via magnetic-nanoconjugates” (National Cheng Kung University, priority 2012, dated 2016)

System: tumor
Assay: targeting hyperthermia and chemotherapy through tail vein injection with RF treatment (FIG. 8)
Assay type: in vivo, C3H/HeN mice
Details: 5-FU injection alone, 770 nM, equivalent to total nanoparticle loaded drugs
Description: In addition, in an embodiment according to the present invention, targeting hyperthermia and chemotherapy through tail vein injection of the 5-FU-loaded Fe3O4@anti-HER2 nanoparticle (500 μg/mL) in a serial single daily dose for four consecutive days are evaluated. RF treatments are given 24 h after the nanoparticle had been injected. […] This indicates nanoparticle accumulation within tumor dissipate sufficient heat to generate hyperthermia effect.
Groups of male C3H/HeN mice 6-8 weeks old in this experiment were given a tail-vein injection of 200 μL 5-FU-loaded Fe3O4@anti-HER2 magnetic nanoparticle in PBS ([…]) or of PBS alone. One group of mice was sacrificed 24 h after the tail-vein injection. The rest of the mice were given 15 min RF treatment 24 h after the tail-vein injection. Twenty-four hours after the RF treatment, the mice were overdosed with the anesthetics ketamine and xylazine (8.7 mg/100 g and 1.3 mg/100 g), and their major organs (brain, heart, lungs, spleen, liver, kidneys) and blood were collected. Each organ was homogenized and dissolved in nitro-hydrochloric acid. The sample solutions were continuously shaken for two days to ensure Fe dissociation. All samples were filtered before analyzed using atomic absorption spectrometer (Solar M6 series; Unicam, UK). […]

O=c1[nH]cc(F)c(=O)[nH]1 [5-FU, 5-fluorouracil]
tumor growth: unable to suppress tumor growth
